Where two headings read alike, the source gives them in different places. Where only a bound is given, the exact number is not on record here.

Data set [1] relates to SMN2 minigene (full length SMN2 minigene mRNA containing SMN2 exon 7). The data set can be described thus: SMN2 minigene mRNA splicing RT-qPCR assay in cultured cells. Type of data set: cell-based, human. To be noted: Homo sapiens, HEK293-H, read-out: EC1.5x for production of full length SMN2 mRNA. The method in brief:
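HEK293H cells stably carrying the SMN2-A minigene treated 24 h at 37° C with compound (DMSO, 200× stock), then lysed. Multiplex RT-qPCR (SMN primers 0.4 μM final; 40 cycles) measures full-length exon 7-containing minigene mRNA, normalized to GAPDH and to vehicle; EC1.5x derived and binned by stars.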
(Quantitative PCR measures a nucleic acid by following its amplification.)

Another data set concerns Smn protein. The data set can be described thus: Smn protein assay in cultured cells (SMN HTRF). Type of data set: cell-based, human. As to conditions: 48 hours; for EC1.5x (concentration giving 1.5-fold Smn protein increase): SMA Type 1 patient fibroblast cells (GM03813), 7-point concentration curve, SMN HTRF, concentration producing 1.5 times Smn protein vs DMSO vehicle control, read-out: EC1.5x for Smn protein expression; for maximum fold (Fold) increase of Smn protein: SMA patient fibroblast cells, 7-point concentration data, fold increase relative to vehicle control (SMN HTRF). The method in brief: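 Lysates in RIPA with protease inhibitors are incubated overnight at room temperature with HTRF anti-SMN antibodies. EC1.5x is derived from fold increase in ΔF over vehicle.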
In general terms: In TR-FRET formats the signal depends on donor and acceptor labels being close together.

Setting [2] is: HEK293H cells stably transfected with SMN2-A minigene, 24 hours, 7-point concentration curve, 1.5-fold relative to vehicle-treated cells.

Broadly, the melting point is the temperature of the solid-liquid transition. The compound `Cc1cn2cc(-c3cc4ccc(C5=CC(C)(C)NC(C)(C)C5)cc4oc3=O)nc2c(C)n1` [Compound 949, 3-(6,8-dimethylimidazo[1,2-a]pyrazin-2-yl)-7-(2,2,6,6-tetramethyl-1,2,3,6-tetrahydropyridin-4-yl)-2H-chromen-2-one] had a melting point of 188 to 190 °C. In data set [1] (setting [2]), the EC (1.5-fold) is under 0.1 µM. In the data set with Smn protein, the EC1.5x (concentration giving 1.5-fold Smn protein increase) was under 300 nM and the “maximum fold (Fold) increase of Smn protein” value (“maximum fold (Fold) increase” for short) is given as “***** (fold increase >1.65)”.

Compound `COc1ccc(-c2cc3ccc(N4CCN[C@@H](C)C4)cc3oc2=O)cc1` [Compound 449, 3-(4-methoxyphenyl)-7-[(3S)-3-methylpiperazin-1-yl]-2H-chromen-2-one] yielded a melting point of 123 to 126 °C. In addition, in data set [1] (setting [2]), the EC (1.5-fold) lay within 1 to 3 µM. The “maximum fold (Fold) increase” value with Smn protein is given as “* (maximum fold increase of ≤1.2)”.

`CCN(CC)C1CCN(c2ccc3cc(-c4cn5cc(C)nc(C)c5n4)c(=O)oc3c2)CC1` [Compound 922, 7-[4-(diethylamino)piperidin-1-yl]-3-(6,8-dimethylimidazo[1,2-a]pyrazin-2-yl)-2H-chromen-2-one] had a melting point of 205 to 207 °C. In addition, in data set [1] (setting [2]), the EC (1.5-fold) was under 0.1 µM. Besides, in the data set on Smn protein, the EC1.5x (concentration giving 1.5-fold Smn protein increase) is 300 to 1000 nM; the “maximum fold (Fold) increase” value was “*** (fold increase between >1.35 and ≤1.5)”.

Turning to `Cc1nccn2cc(-c3cc4ccc(N5CCN(C)CC5)cc4oc3=O)nc12` [Compound 551, 3-(8-methylimidazo[1,2-a]pyrazin-2-yl)-7-(4-methylpiperazin-1-yl)-2H-chromen-2-one], the melting point fell in the range of 221 to 222 °C. In data set [1] (setting [2]), the EC (1.5-fold) lay in the range of 0.3 to 1 µM. Moreover, in the data set on Smn protein, the EC1.5x (concentration giving 1.5-fold Smn protein increase) was under 300 nM; the “maximum fold (Fold) increase” value was “*** (fold increase between >1.35 and ≤1.5)”.

In turn, `C[C@@H]1CN(c2ccc3cc(-c4cn5cccnc5n4)c(=O)oc3c2)C[C@H](C)N1` [Compound 107, 7-[(3R,5S)-3,5-dimethylpiperazin-1-yl]-3-(imidazo[1,2-a]pyrimidin-2-yl)-2H-chromen-2-one] had a melting point of 256 to 258 °C. Moreover, the EC (1.5-fold) in data set [1] (setting [2]) fell in the range of 0.1 to 0.3 µM. In addition, in the data set on Smn protein, the EC1.5x (concentration giving 1.5-fold Smn protein increase) was in the range of 300 to 1000 nM; the “maximum fold (Fold) increase” value was “**** (fold increase between >1.5 and ≤1.65)”.

For the compound `COc1ccc(-c2cc3ccc(N4CCN[C@@H](C)C4)cc3oc2=O)cc1C` [Compound 542, 3-(4-methoxy-3-methylphenyl)-7-[(3S)-3-methylpiperazin-1-yl]-2H-chromen-2-one], the melting point fell in the range of 127 to 131 °C. Besides, the EC (1.5-fold) in data set [1] (setting [2]) is 1 to 3 µM. Besides, the “maximum fold (Fold) increase” value with Smn protein was “* (maximum fold increase of ≤1.2)”.

`Cc1cn2cc(-c3cc4ccc(N5CCCNCC5)cc4oc3=O)nc2c(C)n1` [Compound 518, 7-(1,4-diazepan-1-yl)-3-(6,8-dimethylimidazo[1,2-a]pyrazin-2-yl)-2H-chromen-2-one] displayed a melting point of 188 to 190 °C. For the same compound, the EC (1.5-fold) in data set [1] (setting [2]) is under 0.1 µM. Also, in the data set with Smn protein, the EC1.5x (concentration giving 1.5-fold Smn protein increase) was under 300 nM and the “maximum fold (Fold) increase” value is listed as “***** (fold increase >1.65)”.

Regarding `Cc1cn2cc(-c3cc4ccc(OCCN5CC[C@@H](O)C5)cc4oc3=O)nc2c(C)n1` [Compound 941, 3-(6,8-dimethylimidazo[1,2-a]pyrazin-2-yl)-7-{2-[(3R)-3-hydroxypyrrolidin-1-yl]ethoxy}-2H-chromen-2-one], the melting point fell in the range of 195 to 202 °C. Moreover, the EC (1.5-fold) in data set [1] (setting [2]) is under 0.1 µM. In addition, in the data set with Smn protein, the EC1.5x (concentration giving 1.5-fold Smn protein increase) was 1000 to 3000 nM; the “maximum fold (Fold) increase” value is “**** (fold increase between >1.5 and ≤1.65)”.

`Cn1cc2cc(-c3cc4ccc(C5CCNCC5)cc4oc3=O)ccc2n1` [Compound 856, 3-(2-methyl-2H-indazol-5-yl)-7-(piperidin-4-yl)-2H-chromen-2-one] came in with a melting point of 232 to 238 °C. Further, in data set [1] (setting [2]), the EC (1.5-fold) was under 0.1 µM. For the same compound, in the data set with Smn protein, the EC1.5x (concentration giving 1.5-fold Smn protein increase) was under 300 nM and the “maximum fold (Fold) increase” value is on record as “***** (fold increase >1.65)”.

As for `CC(C)NCCCc1ccc2cc(-c3nc4c(Cl)cccc4s3)c(=O)oc2c1` [Compound 36, 3-(4-chloro-1,3-benzothiazol-2-yl)-7-[3-(propan-2-ylamino)propyl]-2H-chromen-2-one], the melting point was in the range of 262 to 265 °C. For the same compound, in data set [1] (setting [2]), the EC (1.5-fold) was in the range of 1 to 3 µM. The “maximum fold (Fold) increase” value in the data set on Smn protein is “* (maximum fold increase of ≤1.2)”.

Regarding `CCc1nc(C)cn2cc(-c3cc4ccc(N5CCN(C)CC5)cc4oc3=O)nc12` [Compound 830, 3-(8-ethyl-6-methylimidazo[1,2-a]pyrazin-2-yl)-7-(4-methylpiperazin-1-yl)-2H-chromen-2-one], the melting point is 210 to 215 °C. The EC (1.5-fold) in data set [1] (setting [2]) is under 0.1 µM. Besides, in the data set with Smn protein, the EC1.5x (concentration giving 1.5-fold Smn protein increase) is under 300 nM and the “maximum fold (Fold) increase” value was “***** (fold increase >1.65)”.

The compound `CN1CCN(c2ccc3cc(-c4cn5cccc(C(F)(F)F)c5n4)c(=O)oc3c2)CC1` [Compound 210, 7-(4-methylpiperazin-1-yl)-3-[8-(trifluoromethyl)imidazo[1,2-a]pyridin-2-yl]-2H-chromen-2-one] yielded a melting point of 235 to 237 °C. The EC (1.5-fold) in data set [1] (setting [2]) was in the range of 0.3 to 1 µM. Besides, the “maximum fold (Fold) increase” value with Smn protein is reported as “* (maximum fold increase of ≤1.2)”.

`C[C@@H]1CN(c2ccc3cc(-c4cn5ccc(Cl)cc5n4)c(=O)oc3c2)C[C@H](C)N1` [Compound 123, 3-(7-chloroimidazo[1,2-a]pyridin-2-yl)-7-[(3R,5S)-3,5-dimethylpiperazin-1-yl]-2H-chromen-2-one] came in with a melting point of 223 to 231 °C. In addition, the EC (1.5-fold) in data set [1] (setting [2]) was in the range of 1 to 3 µM. For the same compound, in the data set with Smn protein, the EC1.5x (concentration giving 1.5-fold Smn protein increase) lay within 300 to 1000 nM; the “maximum fold (Fold) increase” value was “*** (fold increase between >1.35 and ≤1.5)”.

In the case of `CN1CCCN(c2ccc3cc(-c4cn5cc(Cl)cnc5n4)c(=O)oc3c2)CC1` [Compound 337, 3-(6-chloroimidazo[1,2-a]pyrimidin-2-yl)-7-(4-methyl-1,4-diazepan-1-yl)-2H-chromen-2-one], the melting point lay in the range of 289 to 292 °C. For the same compound, the EC (1.5-fold) in data set [1] (setting [2]) was in the range of 1 to 3 µM. Moreover, the “maximum fold (Fold) increase” value in the data set with Smn protein is “* (maximum fold increase of ≤1.2)”.

Compound `O=c1oc2cc(N3CC4CCC3CN4)ccc2cc1-c1cn2cccc(Cl)c2n1` (stereo not drawn) [Compound 527, 3-(8-chloroimidazo[1,2-a]pyridin-2-yl)-7-(2,5-diazabicyclo[2.2.2]oct-2-yl)-2H-chromen-2-one] returned a melting point of 178 to 182 °C. For the same compound, in data set [1] (setting [2]), the EC (1.5-fold) lay within 0.1 to 0.3 µM. Moreover, in the data set on Smn protein, the EC1.5x (concentration giving 1.5-fold Smn protein increase) is under 300 nM; the “maximum fold (Fold) increase” value is “**** (fold increase between >1.5 and ≤1.65)”.

`Cc1cn2cc(-c3cc4ccc(C5CCN(C)CC5)cc4oc3=O)ccc2n1` [Compound 826, 3-(2-methylimidazo[1,2-a]pyridin-6-yl)-7-(1-methylpiperidin-4-yl)-2H-chromen-2-one]: the melting point was 204 to 206 °C. The EC (1.5-fold) in data set [1] (setting [2]) is under 0.1 µM. For the same compound, in the data set on Smn protein, the EC1.5x (concentration giving 1.5-fold Smn protein increase) was under 300 nM and the “maximum fold (Fold) increase” value was “***** (fold increase >1.65)”.

In turn, `COc1ccc(-c2cc3ccc(N4CCNCC4)cc3oc2=O)cc1OC` [Cpd 316, 3-(3,4-dimethoxyphenyl)-7-(piperazin-1-yl)-2H-chromen-2-one] showed a melting point of 168 to 170 °C. In data set [1] (setting [2]), the EC (1.5-fold) was 0.3 to 1 µM. Further, the “maximum fold (Fold) increase” value in the data set on Smn protein was “** (fold increase between >1.2 and ≤1.35)”.

For the compound `COc1c(F)cc(F)cc1-c1cc2ccc(N3CCN[C@@H](C)C3)cc2oc1=O` [Compound 539, 3-(3,5-difluoro-2-methoxyphenyl)-7-[(3S)-3-methylpiperazin-1-yl]-2H-chromen-2-one], the melting point fell in the range of 156 to 158 °C. In addition, in data set [1] (setting [2]), the EC (1.5-fold) is 3 to 30 µM. The “maximum fold (Fold) increase” value in the data set with Smn protein is “* (maximum fold increase of ≤1.2)”.

Turning to `Cc1cc(F)c2nc(-c3cc4ccc(N5CCN6CCC5CC6)cc4oc3=O)cn2c1` [Compound 561, 7-(1,4-diazabicyclo[3.2.2]non-4-yl)-3-(8-fluoro-6-methylimidazo[1,2-a]pyridin-2-yl)-2H-chromen-2-one], the melting point was 287 to 297 °C. Moreover, in data set [1] (setting [2]), the EC (1.5-fold) is 0.3 to 1 µM. Besides, in the data set on Smn protein, the EC1.5x (concentration giving 1.5-fold Smn protein increase) was under 300 nM; the “maximum fold (Fold) increase” value was “**** (fold increase between >1.5 and ≤1.65)”.

As for `Cc1cccn2cc(-c3cc4ccc(N5C[C@@H](C)N[C@@H](C)C5)cc4oc3=O)nc12` [Compound 136, 7-[(3R,5S)-3,5-dimethylpiperazin-1-yl]-3-(8-methylimidazo[1,2-a]pyridin-2-yl)-2H-chromen-2-one], the melting point was in the range of 243 to 246 °C. The EC (1.5-fold) in data set [1] (setting [2]) was in the range of 1 to 3 µM. In addition, the “maximum fold (Fold) increase” value in the data set with Smn protein was “** (fold increase between >1.2 and ≤1.35)”.

For `Cc1csc(-c2cc3ccc(N4CCN[C@@H](C)C4)cc3oc2=O)n1` [Cpd 283, 7-[(3S)-3-methylpiperazin-1-yl]-3-(4-methyl-1,3-thiazol-2-yl)-2H-chromen-2-one], the melting point lay in the range of 194 to 199 °C. In addition, the EC (1.5-fold) in data set [1] (24 h) lay in the range of 0.3 to 1 µM. In addition, in the data set with Smn protein, the “maximum fold (Fold) increase” value is “* (maximum fold increase of ≤1.2)”.

(Values after patent USRE47689E1, “Compounds for treating spinal muscular atrophy” (PTC Therapeutics, Inc., priority 2011, dated 2019).)
